Assay results published in article PMC8596843, “Platinum Cyclooctadiene Complexes with Activity against Gram‐positive Bacteria” (Chemmedchem, 2021).

Key:
human red blood cells = assay: Haemolysis assay; assay type: cell-based; settings: for Haemolysis HC10: concentration inducing 10 % haemolysis
Method: (§1) As part of the CO‐ADD screening, all compounds that show any activity against a microbial strain are evaluated for their cytotoxicity against human embryonic kidney cells (HEK‐293) and for haemolysis against human red blood cells. None of the compounds tested for cytotoxicity (Pt1‐9 and Pd1) caused any significant cell death up to concentrations of 100 μM. […] We have also observed higher IC50 values for the methylated complexes Pt3 and Pt4 against HeLa cells in previous work.[16]
(§2) The resultant mid-log phase cultures were diluted
(§3) Gram-negative and Gram-positive bacteria, respectively.
(§4) final concentration range of 0.8 – 100 µM.
(§5) inhibitors as positive control.
(§6) Tamoxifen (Sigma T5648) was used
(§7) as internal control on each plate.
in a Neubauer haemocytometer.
incubated for 1 h at 37 °C, without shaking.
HC10 and HC50 (concentration at which 10%
for top, bottom and slope using Prism 8. […]

[1] = test system: Staphylococcus aureus VRS 1, VRSA (VanA); assay: Antibacterial MIC assay, Gram-positive panel; assay type: cell-based; settings: Table S1 panel; n=4
Description: (§8) Bis(dimethyl-η4)-((1Z,1'E,5Z,5'E)-(1,1'-bi(cyclooctadiene))diplatinum(II) (Pt14) Smiles: C1C=CCCC(=CC1)C1=CCCC=CCC1.C[Pt]C.C[Pt]C
(§9) InChIKey: PHIWIZAHOBWKFJ-HPCBIOCFSA-N
(§10) Link to selected data that was repeated to approve the identity of the compounds: https://dx.doi.org/10.14272/PHIWIZAHOBWKFJ-HPCBIOCFSA-N.1
(§11) ATCC strains were sourced from the American Type Culture Collection and NRS strains from NARSA (Network on Antimicrobial Resistance in Staphylococcus aureus) via BEI Resources (www.beiresources.org), with clinical MSSA and MRSA isolates from Prof Graeme Nimmo, Queensland […]
(§12) Health Central Pathology. […]
(§13) Antibacterial minimum inhibitory concentration (MIC) assay
(§14) Compound Assay Plate Preparation: Compounds were dissolved in DMSO at 10mM (CO-ADD screening) or 4 mM (follow up screening) and were plated in a 2-fold dose response from 20 to 0.156 µM or 200 to 0.006 µM respectively, with a maximum of 0.5% or 1% DMSO, final in the assay […]
(§15) plated in a 2-fold dose response from 200 to 0.006 µM, with a maximum of 1 % DMSO, final in the assay concentration. (in-house screening)
(§16) For all the bacterial assays, each strain was cultured in Cation-adjusted Mueller Hinton broth (CAMHB; Bacto Laboratories 212322) at 37 °C overnight. A sample of each culture was then diluted 40-fold in fresh CAMHB and incubated at 37 °C for 1.5–3 h. The resultant mid-log phase cultures were diluted with CAMHB (CFU mL−1 measured by OD600), then added to each well of the compound-containing plates (384-well non-binding surface (NBS) plates; Corning CLS3640), giving a cell density of 5 × 10^5 CFU mL−1 and a total volume of 50 μL. Plates were covered and incubated at 37 °C for 18 h without shaking. Inhibition of bacterial growth was determined measuring absorbance at 600 nm (OD600), using media only as negative control and bacteria without inhibitors as positive control. MIC values were determined as the lowest concentration at which the growth was inhibited at ≥80%. Colistin sulfate (Sigma C4461) and vancomycin HCl (Sigma 861987) were used as internal controls on each plate for Gram-negative and Gram-positive bacteria, respectively. […]

[2] = test system: Staphylococcus aureus ATCC 25923, MSSA; assay: Antibacterial MIC assay, Gram-positive panel; assay type: cell-based; settings: Table S1 panel; n=4
Description: as §8, §9, §10, §11, §12, §13, §14, §15, §16

[3] = test system: E. coli lpxC (non‐efficient lipid A production mutant); assay: MIC against E. coli membrane mutants; assay type: cell-based, Escherichia coli; settings: Table S2
Method: as §13
(§17) concentration. (in-house screening)
(§18) Bacto Laboratories 212322) at 37 °C overnight.
as §2, §3, §4
(§19) inhibitors as positive control. […]

[4] = test system: B. subtilis ATCC 6051 type strain; assay: MIC in the presence of human serum (serum reversal); assay type: cell-based, Bacillus subtilis; settings: 10% serum
Description: (§20) To obtain some initial insight into the apparent disparity between in vitro and in vivo results, we repeated the MIC experiments against four selected Gram‐positive strains in the presence of 10 % or 50 % human serum (Table S3). Pt1 and Pt2 maintained some antibacterial activity against B. subtilis in the presence of 10 % serum, but a complete loss of activity was observed against MRSA and GISA (50 % serum), and VRE (10 % serum). […] Systemic administration is therefore unlikely to be a suitable administration route for this class of compounds unless an alternative formulation that can prevent serum binding (e. g. by lipid or nanoparticle encapsulation) can be found. […] Further in vivo studies should therefore focus on more suitable disease models. […]
as §13, §17, §18, §2, §3, §4, §19

[5] = test system: S. aureus ATCC 43300 MRSA; assay: as above; assay type: cell-based, Staphylococcus aureus; settings: 50% serum
Description: as §20, §13, §17, §18, §2, §3, §4, §19

S. aureus NRS 17 GISA = assay: as above; assay type: cell-based, Staphylococcus aureus; settings: 50% serum
Description: as §20, §13, §17, §18, §2, §3, §4, §19

[6] = test system: HEK-293 ATCC CRL-1573 human embryonic kidney cells; assay type: cell-based
Method: as §1, with “work.[16] […]” for “work.[16]”
as §5, §6, §7
in a Neubauer haemocytometer. […]

[7] = test system: Staphylococcus epidermidis ATCC 14990, type strain; assay: Antibacterial MIC assay, Gram-positive panel; assay type: cell-based; settings: Table S1 panel; n=4
Method: (§21) Smiles: C1C=CCCC(=CC1)C1=CCCC=CCC1.C[Pt]C.C[Pt]C […]
as §11, §12, §13, §14, §15, §16

[8] = test system: Enterococcus faecalis ATCC 29212, control strain; assay: Antibacterial MIC assay, Gram-positive panel; assay type: cell-based; settings: Table S1 panel; n=4
Method: as §21, §11, §12, §13, §14, §15, §16

[9] = test system: Enterococcus faecium Clinical Isolate, VRE (VanA); assay: Antibacterial MIC assay, Gram-positive panel; assay type: cell-based; settings: Table S1 panel; n=4
Method: as §21, §11, §12, §13, §14, §15, §16

[10] = test system: Enterococcus faecalis Clinical Isolate, VRE (VanB); assay: Antibacterial MIC assay, Gram-positive panel; assay type: cell-based; settings: Table S1 panel; n=4
Method: as §21, §11, §12, §13, §14, §15, §16

[11] = test system: Enterococcus faecium ATCC 35667, type strain; assay: Antibacterial MIC assay, Gram-positive panel; assay type: cell-based; settings: Table S1 panel; n=4
Method: as §21, §11, §12, §13, §14, §15, §16

[12] = test system: Bacillus subtilis ATCC 6051, type strain; assay: Antibacterial MIC assay, Gram-positive panel; assay type: cell-based; settings: Table S1 panel; n=2
Method: as §21, §11, §12, §13, §14, §15, §16

[13] = test system: Enterococcus faecium ATCC 51559, MDR, VRE (VanA); assay: Antibacterial MIC assay, Gram-positive panel; assay type: cell-based; settings: Table S1 panel; n=2
Method: as §21, §11, §12, §13, §14, §15, §16

[14] = test system: E. faecium ATCC 51559 MDR, VRE; assay: MIC in the presence of human serum (serum reversal); assay type: cell-based, Enterococcus faecium; settings: 10% serum
Description: as §20, §13, §17, §18, §2, §3, §4, §19

SMILES: CC[C@H](C)[C@H](NC(=O)CN)C(=O)NCC(=O)N[C@@H](C)C(=O)N[C@H](C(=O)N[C@@H](CC(C)C)C(=O)N[C@@H](CCCCN)C(=O)N[C@H](C(=O)N[C@@H](CC(C)C)C(=O)N[C@H](C(=O)N[C@H](C(=O)NCC(=O)N[C@@H](CC(C)C)C(=O)N1CCC[C@H]1C(=O)N[C@@H](C)C(=O)N[C@@H](CC(C)C)C(=O)N[C@H](C(=O)N[C@@H](CO)C(=O)N[C@@H](Cc1c[nH]c2ccccc12)C(=O)N[C@H](C(=O)N[C@@H](CCCCN)C(=O)N[C@@H](CCCNC(=N)N)C(=O)N[C@@H](CCCCN)C(=O)N[C@@H](CCCNC(=N)N)C(=O)N[C@@H](CCC(N)=O)C(=O)N[C@@H](CCC(N)=O)C(N)=O)[C@@H](C)CC)[C@@H](C)CC)[C@@H](C)O)[C@@H](C)O)C(C)C)C(C)C [Melittin, reference compound]
- Haemolysis HC10 (human red blood cells): 1.15 µM

SMILES: C1=C\CC/C=C\CC/1.[Cl][Pd][Cl] [Pd1]
- MIC [1]: > 200 µM
- MIC [2]: 200 µM
- MIC E. coli lpxC [3]: > 200 µM
- MIC in the presence of human serum [4]: > 200 µM
- MIC in the presence of human serum [5]: > 200 µM
- MIC in the presence of human serum (S. aureus NRS 17 GISA): > 200 µM
- CC50 [6]: > 100 µM
- MIC [7]: 100 µM
- MIC [8]: > 200 µM
- MIC [9]: > 200 µM
- MIC [10]: > 200 µM
- MIC [11]: > 200 µM
- MIC [12]: > 200 µM
- MIC [13]: 200 µM
- MIC in the presence of human serum [14]: > 200 µM
- Haemolysis HC10 (human red blood cells): 7.76 µM
- Haemolysis HC50 (human red blood cells; concentration inducing 50 % haemolysis): 10.14 µM
